We go through three molecules from patent US20070258912A1, “Use of Fluorescent Whitening Agents as Antimicrobials” (priority 2004, published 2007).

Holding throughout (type): cell-based
For assay [1], the system named is Corynebacterium xerosis. The assay is described as follows: MIC in the agar incorporation test. Here is the method: (§1) Determination of Minimum Inhibitory Concentration (MIC Values) in the Agar Incorporation Test
(§2) 1% stock solutions of the substances are prepared in an appropriate solvent and diluted in serial dilutions 1:2 (to yield end concentrations in the agar of 500-1.9 ppm). 0.3 ml of each dilution step is mixed with 15 ml of nutrient medium while the latter is still liquid. After the nutrient medium has solidified, 10 μl of each test strain in 0.85% NaCl solution are spotted onto the agar medium.
(§3) The plates are incubated at 37° C. for 24 hours and then the highest dilution (lowest concentration) of the test substance at which growth is no longer observable is determined.
(§4) Test Organisms: Staphylococcus aureus ATCC 6583 Staphylococcus epidermidis ATCC 12228 Corynebacterium xerosis ATCC 373 Propionibacterium acnes ATCC Escherichia coli ATCC 10536 Salmonella choleraesuis ATCC Klebsiella pneumoniae ATCC *Candida albicans ATCC 10231
(§5) *Aspergillus niger ATCC 6275

For assay [2], the system named is Propionibacterium acnes. The assay is described as follows: MIC in the agar incorporation test. Particulars: Cutibacterium acnes, read-out: MIC Propionibacterium acnes. How it is done: as §1, §2, §3, §4, §5
In assay [3] the test system is Escherichia coli. Description: MIC in the agar incorporation test. The conditions noted are these: ATCC10536, agar incorporation, Mueller Hinton agar, 24 hours at 37° C., ATCC 10536, read-out: MIC Escherichia coli. How it is done: as §1, §2, §3, §4, §5
Assay [4] concerns Staphylococcus epidermis. Description: MIC in the agar incorporation test. How it is done: as §1, §2, §3, §4, §5
Assay [5] relates to Klebsiella pneumoniae. The assay is described as follows: MIC in the agar incorporation test. Particulars: Mueller Hinton agar, 24 hours at 37° C. How it is done:
as §1, §2, §3, §4, §5

Assay [6] deals with Salmonella choleraesuis. The assay is described as follows: MIC in the agar incorporation test. The conditions noted are these: Salmonella enterica, Mueller Hinton agar, 24 hours at 37° C. How it is done:
as §1, §2, §3, §4, §5

The subject of assay [7] is Staphylococcus aureus. The assay is described as follows: MIC in the agar incorporation test. Here is the method: as §1, §2, §3, §4, §5
Assay [8] has as its system Corynebacterium minutissimum. Description: MIC in the agar incorporation test. The conditions noted are these: read-out: MIC Corynebacterium minutissimum.
Assay [9] relates to Corynebacterium xerosis. The assay is described as follows: Microbicidal activity (suspension test, plate count). Particulars: 120 ppm, ATCC 373. Here is the method:
(§6) Determination of Microbicidal Activity
(§7) 1 g stock solution with an appropriate concentration of test products are mixed with 8 g water and then inoculated with 1 ml of the selected test organisms. After a given contact period, aliquots are taken, inactivated and diluted. The number of surviving bacteria per ml incubation assay is determined by plate count. Proper inactivation by the inactivating medium used was checked each time.
(§8) Diluent: tryptone water for microorganisms
(§9) • (0.1% tryptone (Oxoid), 0.85% NaCl, deion. water) • deion. water for test substances • inactivating medium for detection of surviving microorganisms Growth medium: casein soybean peptone agar Inactivating Medium: tryptic soy broth special • (10% w/w Tween 80, 3% w/w Lecithine, 0.1% w/w L-Histidine, • 0.055% w/w Sodium thiosulfate) Test organisms: Staphylococcus aureus ATCC 6538 • Escherichia coli ATCC 10536 • Actinomyces viscosus ATCC 43146 • Corynebacterium xerosis ATCC 373 Test concentration: 120 ppm and 1200 ppm Contact times: 5 and 30 minutes at 22° C.
(§10) Incubation time: 24 h at 37° C.

In assay [10] the test system is Escherichia coli. The description is as above. The conditions noted are these: 120 ppm, ATCC 10536. Here is the method: as §6, §7, §8, §9, §10
The subject of assay [11] is Actinomyces viscosus. The assay is described as above. Particulars: 120 ppm, ATCC 43146. How it is done: as §6, §7, §8, §9, §10
The test system of assay [12] is Staphylococcus aureus. Described as above. Particulars: 120 ppm, ATCC 6538. How it is done: as §6, §7, §8, §9, §10
Assay [13] deals with Actinobacillus actinomycetemcomitans. Description: MIC against oral microorganisms via broth dilution. The conditions noted are these: Aggregatibacter actinomycetemcomitans, ATCC43718; broth dilution 0.94-15 ppm, 24 h aerobically with 10% CO2, ATCC 43718. Here is the method: (§11) Determination of the Minimum Inhibition Concentration (MIC Value) Against Different Oral Microorganisms Via Broth Dilution
(§12) 1500 ppm stock solutions of the substances are prepared in ethanol and pipetted into the growth medium to yield concentrations between 0.94 and 15 ppm. Bacteria are taken from blood agar plates with cotton swabs and adjusted in the appropriate growth medium to yield an optical density corresponding to McFarland 0.5. This suspension is directly used in the case of F. nucleatum and P. nigrescens. For the other strains, the suspension is diluted 1:20. 0.1 ml of these bacterial suspensions are added to 2 ml of the substance solutions. After the incubation time, the tubes are assessed for growth (turbidity).
(§13) Test Organisms: *Actinobacillus actinomycetemcomitans ATCC 43718 *Stretococcus gordonii ATCC 10558 *Streptococcus mutans ATCC 33402 Actinomyces viscosus ATCC 43146 Fusobacterium nucleatum subsp. polymorphum ATCC 10953 Porphyromonas gingivalis ATCC 33277
(§14) Prevotella nigrescens ATCC 33563

For assay [14], the system named is Porphyromnas gingivalis. The assay is described as follows: MIC against oral microorganisms via broth dilution. The conditions noted are these: read-out: MIC Porphyromnas gingivalis. How it is done:
as §11, §12, §13, §14
(In general: Broth dilution looks for growth in wells or tubes with falling amounts of substance.)

The test system of assay [15] is Prevotella nigrescens. Description: MIC against oral microorganisms via broth dilution. How it is done: as §11, §12, §13, §14
Assay [16] deals with Fusobacterium nucleatum subsp. polymorphum. The assay is described as follows: MIC against oral microorganisms via broth dilution. Particulars: ATCC10953, broth dilution 0.94-15 ppm, 7-10 days at 37° C. anaerobically, ATCC 10953, read-out: MIC Fusobacterium nucleatum subsp. polymorphum. Here is the method: as §11, §12, §13, §14
Assay [17] relates to Streptococcus gordonii. The assay is described as follows: MIC against oral microorganisms via broth dilution. How it is done: as §11, §12, §13, §14
The test system of assay [18] is Streptococcus mutans. The assay is described as follows: MIC against oral microorganisms via broth dilution. How it is done:
as §11, §12, §13, §14

Assay [19] has as its system Actinomyces viscosus. The assay is described as follows: MIC against oral microorganisms via broth dilution. Here is the method:
as §11, §12, §13, §14

Assay [20] deals with Actinomyces viscosus ATCC 43146. Description: Substantivity on hydroxyapatite and growth inhibition. The conditions noted are these: 500 ppm ethanolic solution; discs pretreated with artificial saliva; 6 and 24 hours at 37° C.; vs untreated control. How it is done:
Hydroxyapatite discs are incubated in artificial saliva (German Dental Magazine DZZ 5/2002) for 4 hrs under stirring, rinsed in NaCl, dried over night, and then incubated in ethanolic solutions of the test substances. Then all treated discs are put in 12 well Nucleon surface titre plates (one disc per well), and Caso Broth inoculated with the test strain. The titre plates are incubated at 37° C., samples are taken after 6 and 24 hrs and the colony count is determined by plate count.

[21] abbreviates: ATCC373, agar incorporation, Mueller Hinton agar, 24 hours at 37° C., ATCC 373, read-out: MIC Corynebacterium xerosis.
The mark [22] stands for this setting: agar incorporation, Mueller Hinton agar, 24 hours at 37° C.
Setting [23] is: ATCC12228, agar incorporation, Mueller Hinton agar, 24 hours at 37° C., ATCC 12228, read-out: MIC Staphylococcus epidermis.
Where [24] appears, read: ATCC6583, agar incorporation, Mueller Hinton agar, 24 hours at 37° C., ATCC 6583, read-out: MIC Staphylococcus aureus.
[25] abbreviates: broth dilution 0.94-15 ppm, Columbia bouillon, 7-10 days at 37° C. anaerobically, ATCC 33277.
The mark [26] stands for this setting: ATCC33563, broth dilution 0.94-15 ppm, Columbia bouillon, 7-10 days at 37° C. anaerobically, ATCC 33563, read-out: MIC Prevotella nigrescens.
[27] abbreviates: ATCC10558, broth dilution 0.94-15 ppm, 24 h aerobically with 10% CO2, ATCC 10558, read-out: MIC Streptococcus gordonii.
[28] abbreviates: ATCC33402, broth dilution 0.94-15 ppm, 24 h aerobically with 10% CO2, ATCC 33402, read-out: MIC Streptococcus mutans.
Setting [29] is: ATCC43146, broth dilution 0.94-15 ppm, 7-10 days at 37° C. anaerobically, ATCC 43146, read-out: MIC Actinomyces viscosus.

Read-outs that look alike come from different tables or passages of the source.

Turning to `CN(C)CCCOc1ccccc1/C=C/c1ccc(/C=C/c2ccccc2OCCCN(C)C)cc1` [formula 26], the MIC in assay [1] (setting [21]) was found to be 3.1 µg/mL; in assay [2] (setting [22]) it was 12.5 µg/mL; in assay [3] it was 200 µg/mL; in assay [4] (setting [23]) it was 6.3 µg/mL; in [5], 25 µg/mL; in assay [6] it was 200 µg/mL. The MIC came to 6.3 µg/mL in assay [7] (setting [24]); 6.3 µg/mL in assay [8] (setting [22]); 15 µg/mL in [13]; 3.8 µg/mL in assay [14] (setting [25]); 1.9 µg/mL in assay [15] (setting [26]); 3.8 µg/mL in assay [16]. The MIC came out at 7.5 µg/mL in assay [17] (setting [27]), 3.8 µg/mL in assay [18] (setting [28]) and 3.8 µg/mL in assay [19] (setting [29]). In addition, the “Microbicidal activity Corynebacterium xerosis 120 ppm/5 min” value in assay [9] (5 min contact at 22° C.) came to 2.9 log reductions. Also, the “Microbicidal activity Corynebacterium xerosis 120 ppm/30 min” value in assay [9] (30 min contact at 22° C.) turned out to be 5 log reductions. The “Microbicidal activity Escherichia coli 120 ppm/5 min” value in [10] (5 min contact at 22° C.) turned out to be 4.5 log reduction. Also, the “Microbicidal activity Escherichia coli 120 ppm/30 min” value in [10] (30 min contact at 22° C.) is 5 log reduction. Moreover, the “Microbicidal activity Actinomyces viscosus 120 ppm/5 min” value in [11] (5 min contact at 22° C.) was found to be 0 log reductions. In [11] (30 min contact at 22° C.), the “Microbicidal activity Actinomyces viscosus 120 ppm/30 min” value amounted to 3.7 log reductions. Further, the “Microbicidal activity Staphylococcus aureus 120 ppm/5 min” value in [12] (5 min contact at 22° C.) turned out to be 0 log reduction. In addition, the “Microbicidal activity Staphylococcus aureus 120 ppm/30 min” value in assay [12] (30 min contact at 22° C.) came out at 4 log reduction.

On to `CC[N+](C)(C)CCCOc1ccccc1/C=C/c1ccc(-c2ccc(/C=C/c3ccccc3OCCC[N+](C)(C)CC)cc2)cc1` [formula 33], for which the MIC in assay [1] (ATCC373, 24 h, read-out: MIC Corynebacterium xerosis) was 31.3 µg/mL; in [2] (24 h), 3.9 µg/mL; in [4] (ATCC12228, 24 h, read-out: MIC Staphylococcus epidermis) it was 3.9 µg/mL; in assay [7] (ATCC6583, 24 h, read-out: MIC Staphylococcus aureus) it was 3.9 µg/mL; in [8] (24 h), 7.8 µg/mL; in assay [14], 15 µg/mL. Further, the MIC is 3.75 µg/mL in [15] (ATCC33563, read-out: MIC Prevotella nigrescens); 3.75 µg/mL in [17] (ATCC10558, 24 h, read-out: MIC Streptococcus gordonii); 1.88 µg/mL in [18] (ATCC33402, 24 h, read-out: MIC Streptococcus mutans); 3.8 µg/mL in [19] (ATCC43146, read-out: MIC Actinomyces viscosus). In addition, the “Growth inhibition of Actinomyces viscosus after adsorption on hydroxyapatite discs” value in [20] is listed as “growth inhibition”.

For `CCN(CC)CCOc1ccccc1/C=C/c1ccc(/C=C/c2ccccc2OCCN(CC)CC)cc1` [formula 24], the MIC in assay [1] (setting [21]) came out at 3.8 µg/mL; in assay [2] (setting [22]), 3.8 µg/mL; in [4] (setting [23]), 7.5 µg/mL; in assay [5], 120 µg/mL; in assay [7] (setting [24]), 7.5 µg/mL; in [8] (setting [22]), 3.8 µg/mL. In addition, the MIC in assay [13] was 15 µg/mL; in assay [14] (setting [25]), 1.9 µg/mL; in assay [15] (setting [26]), 1.9 µg/mL; in assay [16], 15 µg/mL; in [17] (setting [27]) it was 7.5 µg/mL; in assay [18] (setting [28]), 7.5 µg/mL. For the same molecule, the MIC in [19] (setting [29]) is 3.75 µg/mL. The “Growth inhibition of Actinomyces viscosus after adsorption on hydroxyapatite discs” value in assay [20] was “growth inhibition”.
